# Reference: patent US10597388B2, “Pyridazinone herbicides” (FMC CORPORATION, priority 2014, dated 2020)
# How the values were obtained:
# Test in all cases: Test D controlled growth environment herbicide test, pre- and postemergence
# Format in all cases: in vivo
# [1] = tested on: barley, spring (spring barley, Hordeum vulgare)
# Outline: (§1)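 Species sown in silt loam and sprayed preemergence, or grown in peat-based medium to 2–18 cm (1- to 4-leaf stage) and sprayed postemergence, with compounds in non-phytotoxic solvent plus surfactant. Visual injury scored versus controls after 14–21 d in a controlled environment, 0 (no effect) to 100 (complete control).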
# [2] = tested on: blackgrass (Alopecurus myosuroides)
# Outline: as §1
# [3] = tested on: bluegrass (annual bluegrass, Poa annua)
# Outline: as §1
# [4] = tested on: buckwheat, wild (wild buckwheat, Polygonum convolvulus)
# Outline: as §1
# [5] = tested on: canarygrass (Phalaris minor)
# Outline: as §1
# [6] = tested on: chamomile (scentless chamomile, Matricaria inodora)
# Outline: as §1
# [7] = tested on: field violet (Viola arvensis)
# Outline: as §1
# [8] = tested on: foxtail, green (green foxtail, Setaria viridis)
# Outline: as §1
# [9] = tested on: oat, wild (wild oat, Avena fatua)
# Outline: as §1
# [10] = tested on: pigweed (Amaranthus retroflexus)
# Outline: as §1
# [11] = tested on: radish, wild (wild radish, Raphanus raphanistrum)
# Outline: as §1
# [12] = tested on: ryegrass, Italian (Italian ryegrass, Lolium multiflorum)
# Outline: as §1
# [13] = tested on: wheat, spring (spring wheat, Triticum aestivum)
# Outline: as §1
# [14] = Postemergence, 31 g ai/ha, scale 0 to 100 (0 no effect, 100 complete control)
# [15] = Postemergence, 125 g ai/ha, visual rating on scale 0 (no effect) to 100 (complete control), 14 to 21 d
# [16] = Postemergence, 250 g ai/ha, scale 0 to 100 (0 no effect, 100 complete control)
# [17] = Preemergence, 62 g ai/ha, scale 0 to 100 (0 no effect, 100 complete control)
# [18] = Preemergence, 125 g ai/ha, scale 0 to 100 (0 no effect, 100 complete control)
# [19] = Preemergence, 250 g ai/ha, scale 0 to 100 (0 no effect, 100 complete control)
# [20] = postemergence, 62 g ai/ha, scale 0 to 100, 0 no effect, 100 complete control
compound,measurement,setting,value
CCOC(=O)Oc1c(C)nn(C)c(=O)c1-c1c(C)ccc2ccccc12 [Compound 73],"Barley, Spring plant response rating",[1]; [14],10
same,"Plant response rating, Barley, Spring",[1]; [15],30
same,"Plant response rating, Barley, Spring",[1]; [16],40
same,"Plant response rating (scale of 0 to 100), Barley, Spring","[1]; Preemergence, 31 g ai/ha",0
same,"Plant response rating, Barley, Spring",[1]; [17],10
same,"Plant response rating, Barley, Spring",[1]; [18],0
same,"Plant response rating, Barley, Spring",[1]; [19],60
same,"Plant response rating, Barley, Spring",[1]; [20],25
same,Blackgrass plant response rating,[2]; [14],65
same,"Plant response rating, Blackgrass",[2]; [15],80
same,"Plant response rating, Blackgrass",[2]; [16],90
same,"Plant response rating (scale of 0 to 100), Blackgrass","[2]; Preemergence, 31 g ai/ha",50
same,"Plant response rating, Blackgrass",[2]; [17],60
same,"Plant response rating, Blackgrass",[2]; [18],80
same,"Plant response rating, Blackgrass",[2]; [19],85
same,"Plant response rating, Blackgrass",[2]; [20],70
same,Bluegrass plant response rating,[3]; [14],15
same,"Plant response rating, Bluegrass",[3]; [15],55
same,"Plant response rating, Bluegrass",[3]; [16],65
same,"Plant response rating (scale of 0 to 100), Bluegrass","[3]; Preemergence, 31 g ai/ha",15
same,"Plant response rating, Bluegrass",[3]; [17],35
same,"Plant response rating, Bluegrass",[3]; [18],35
same,"Plant response rating, Bluegrass",[3]; [19],30
same,"Plant response rating, Bluegrass",[3]; [20],30
same,"Buckwheat, Wild plant response rating",[4]; [14],95
same,"Plant response rating, Buckwheat, Wild",[4]; [15],100
same,"Plant response rating, Buckwheat, Wild",[4]; [16],100
same,"Plant response rating (scale of 0 to 100), Buckwheat, Wild","[4]; Preemergence, 31 g ai/ha",0
same,"Plant response rating, Buckwheat, Wild",[4]; [17],0
same,"Plant response rating, Buckwheat, Wild",[4]; [18],60
same,"Plant response rating, Buckwheat, Wild",[4]; [19],30
same,"Plant response rating, Buckwheat, Wild",[4]; [20],100
same,Canarygrass plant response rating,[5]; [14],60
same,"Plant response rating, Canarygrass",[5]; [15],80
same,"Plant response rating, Canarygrass",[5]; [16],90
same,"Plant response rating (scale of 0 to 100), Canarygrass","[5]; Preemergence, 31 g ai/ha",80
same,"Plant response rating, Canarygrass",[5]; [17],85
same,"Plant response rating, Canarygrass",[5]; [18],90
same,"Plant response rating, Canarygrass",[5]; [19],100
same,"Plant response rating, Canarygrass",[5]; [20],70
same,Chamomile plant response rating,[6]; [14],70
same,"Plant response rating, Chamomile",[6]; [15],90
same,"Plant response rating, Chamomile",[6]; [16],100
same,"Plant response rating, Chamomile",[6]; [20],85
same,Field Violet plant response rating,[7]; [14],90
same,"Plant response rating, Field Violet",[7]; [15],90
same,"Plant response rating, Field Violet",[7]; [16],90
same,"Plant response rating (scale of 0 to 100), Field Violet","[7]; Preemergence, 31 g ai/ha",35
same,"Plant response rating, Field Violet",[7]; [17],75
same,"Plant response rating, Field Violet",[7]; [18],80
same,"Plant response rating, Field Violet",[7]; [19],95
same,"Plant response rating, Field Violet",[7]; [20],95
same,"Foxtail, Green plant response rating",[8]; [14],65
same,"Plant response rating, Foxtail, Green",[8]; [15],75
same,"Plant response rating, Foxtail, Green",[8]; [16],80
same,"Plant response rating (scale of 0 to 100), Foxtail, Green","[8]; Preemergence, 31 g ai/ha",15
same,"Plant response rating, Foxtail, Green",[8]; [17],20
same,"Plant response rating, Foxtail, Green",[8]; [18],50
same,"Plant response rating, Foxtail, Green",[8]; [19],100
same,"Plant response rating, Foxtail, Green",[8]; [20],70
same,"Oat, Wild plant response rating",[9]; [14],85
same,"Plant response rating, Oat, Wild",[9]; [15],95
same,"Plant response rating, Oat, Wild",[9]; [16],100
same,"Plant response rating (scale of 0 to 100), Oat, Wild","[9]; Preemergence, 31 g ai/ha",75
same,"Plant response rating, Oat, Wild",[9]; [17],90
same,"Plant response rating, Oat, Wild",[9]; [18],85
same,"Plant response rating, Oat, Wild",[9]; [19],100
same,"Plant response rating, Oat, Wild",[9]; [20],95
same,Pigweed plant response rating,[10]; [14],100
same,"Plant response rating, Pigweed",[10]; [15],100
same,"Plant response rating, Pigweed",[10]; [16],100
same,"Plant response rating (scale of 0 to 100), Pigweed","[10]; Preemergence, 31 g ai/ha",70
same,"Plant response rating, Pigweed",[10]; [17],100
same,"Plant response rating, Pigweed",[10]; [18],100
same,"Plant response rating, Pigweed",[10]; [19],100
same,"Plant response rating, Pigweed",[10]; [20],100
same,"Radish, Wild plant response rating",[11]; [14],75
same,"Plant response rating, Radish, Wild",[11]; [15],100
same,"Plant response rating, Radish, Wild",[11]; [16],100
same,"Plant response rating (scale of 0 to 100), Radish, Wild","[11]; Preemergence, 31 g ai/ha",30
same,"Plant response rating, Radish, Wild",[11]; [17],75
same,"Plant response rating, Radish, Wild",[11]; [18],100
same,"Plant response rating, Radish, Wild",[11]; [19],90
same,"Plant response rating, Radish, Wild",[11]; [20],95
same,"Ryegrass, Italian plant response rating",[12]; [14],70
same,"Plant response rating, Ryegrass, Italian",[12]; [15],95
same,"Plant response rating, Ryegrass, Italian",[12]; [16],98
same,"Plant response rating (scale of 0 to 100), Ryegrass, Italian","[12]; Preemergence, 31 g ai/ha",95
same,"Plant response rating, Ryegrass, Italian",[12]; [17],100
same,"Plant response rating, Ryegrass, Italian",[12]; [18],100
same,"Plant response rating, Ryegrass, Italian",[12]; [19],100
same,"Plant response rating, Ryegrass, Italian",[12]; [20],85
same,"Wheat, Spring plant response rating",[13]; [14],45
same,"Plant response rating, Wheat, Spring",[13]; [15],70
same,"Plant response rating, Wheat, Spring",[13]; [16],85
same,"Plant response rating (scale of 0 to 100), Wheat, Spring","[13]; Preemergence, 31 g ai/ha",15
same,"Plant response rating, Wheat, Spring",[13]; [17],55
same,"Plant response rating, Wheat, Spring",[13]; [18],70
same,"Plant response rating, Wheat, Spring",[13]; [19],85
same,"Plant response rating, Wheat, Spring",[13]; [20],55
